Common to all, as to assay: Synthesizing Selective Agonists for the ?7 Nicotinic Receptor with in situ Click-Chemistry on Acetylcholine Binding Protein Templates.
Test [1] deals with Neuronal acetylcholine receptor subunit alpha-4 (Homo sapiens, UniProt P43681). Particulars: pH 7.4; 37 °C. The procedure: (§1) Assay Description 2 Assays used to generate Ki or EC50 values. 1) SPA Assay - Quick screen binding assays were performed using 100 l of 0.2 mg/ml anti-mouse SPA antibody-binding beads (Amersham Biosciences) mixed with 33.6 g of monoclonal anti-FLAG M2 antibody from mouse (Sigma) in 0.1 M NaPO4 buffer, pH 7.0 (SPA mixture). Media (5l) collected 2 days after transfection were added to the mixture and finally 10 l of (+)-[3H]epibatidine (PerkinElmer Life Sciences) was added at a final concentration of 10 nM. Solutions were each counted for 1 min on either a Beckman LS 6500 liquid scintillation counter or Wallac 1450 Microbeta Trilux. Negative and positive controls consisted of media (5 l) from the respective transfections. Nonexpressing mutants were transfected and verified de novo in triplicate. Western immunoblots were also performed upon media (15 l) from transfections to verify the lack of expression. Competition curves and direct binding were measured following the protocol p

Test [2] addresses T1, 5-hydroxytryptamine receptor 3A (Mus musculus, UniProt P23979).
T1 sequence (P23979 whole entry): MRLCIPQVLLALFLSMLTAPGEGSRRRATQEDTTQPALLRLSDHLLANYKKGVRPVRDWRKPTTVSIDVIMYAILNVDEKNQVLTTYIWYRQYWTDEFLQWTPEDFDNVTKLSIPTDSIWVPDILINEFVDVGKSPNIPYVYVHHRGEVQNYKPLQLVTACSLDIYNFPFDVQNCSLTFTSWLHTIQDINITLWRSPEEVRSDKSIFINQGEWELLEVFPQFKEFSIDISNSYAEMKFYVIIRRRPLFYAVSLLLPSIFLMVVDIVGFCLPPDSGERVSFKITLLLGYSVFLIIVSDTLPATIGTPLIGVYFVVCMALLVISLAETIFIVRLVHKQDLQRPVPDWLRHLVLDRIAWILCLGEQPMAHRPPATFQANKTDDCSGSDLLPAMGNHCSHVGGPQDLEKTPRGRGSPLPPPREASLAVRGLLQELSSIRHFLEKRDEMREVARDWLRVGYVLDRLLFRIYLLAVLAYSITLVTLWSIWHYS
The note with it: pH 7.4; 37 °C. Here is the method: as §1

Test [3] deals with T2, Soluble acetylcholine receptor (Aplysia californica, UniProt Q8WSF8).
T2 sequence (Q8WSF8 whole entry): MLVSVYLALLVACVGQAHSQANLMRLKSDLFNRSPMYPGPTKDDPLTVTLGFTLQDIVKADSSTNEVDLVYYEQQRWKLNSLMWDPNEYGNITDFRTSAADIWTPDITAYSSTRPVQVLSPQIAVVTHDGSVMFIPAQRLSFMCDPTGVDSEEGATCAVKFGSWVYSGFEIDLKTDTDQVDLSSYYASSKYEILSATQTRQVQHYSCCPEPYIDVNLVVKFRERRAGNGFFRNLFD
Particulars: pH 7.4; 20 °C. The procedure:
as §1

Test [4] addresses Neuronal acetylcholine receptor subunit alpha-7 (Homo sapiens, UniProt P36544). The note with it: pH 7.4; 37 °C. Here is the method: as §1
Test [5] deals with Acetylcholine-binding protein (Lymnaea stagnalis, UniProt P58154). The note with it: pH 7.4; 20 °C. Here is the method: as §1

Values joined by “and” are separate entries in the source; they are usually repeats but may differ in a detail not shown here. Equal entries are not always repeated.

Sequence of Neuronal acetylcholine receptor subunit alpha-7 (P36544 whole entry): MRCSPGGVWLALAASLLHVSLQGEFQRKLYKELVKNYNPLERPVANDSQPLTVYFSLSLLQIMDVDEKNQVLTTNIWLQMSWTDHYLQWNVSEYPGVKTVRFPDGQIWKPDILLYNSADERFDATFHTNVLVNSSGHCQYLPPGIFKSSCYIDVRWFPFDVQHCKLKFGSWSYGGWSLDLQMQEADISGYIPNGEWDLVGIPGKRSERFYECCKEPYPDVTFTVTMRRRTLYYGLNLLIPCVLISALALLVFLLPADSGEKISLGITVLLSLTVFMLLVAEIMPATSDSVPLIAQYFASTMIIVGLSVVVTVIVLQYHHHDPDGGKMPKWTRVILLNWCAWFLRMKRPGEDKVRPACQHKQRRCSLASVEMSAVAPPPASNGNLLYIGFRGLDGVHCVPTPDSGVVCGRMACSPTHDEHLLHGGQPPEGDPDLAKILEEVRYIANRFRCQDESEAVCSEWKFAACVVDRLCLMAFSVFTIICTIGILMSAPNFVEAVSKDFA
Sequence of Acetylcholine-binding protein (P58154 whole entry): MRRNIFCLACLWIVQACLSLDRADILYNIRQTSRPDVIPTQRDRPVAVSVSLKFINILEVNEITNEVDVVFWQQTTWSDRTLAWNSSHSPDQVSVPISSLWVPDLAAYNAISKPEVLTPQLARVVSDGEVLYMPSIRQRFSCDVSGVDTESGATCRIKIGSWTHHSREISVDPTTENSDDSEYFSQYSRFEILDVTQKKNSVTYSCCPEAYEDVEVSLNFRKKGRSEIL
Sequence of Neuronal acetylcholine receptor subunit alpha-4 (P43681 whole entry): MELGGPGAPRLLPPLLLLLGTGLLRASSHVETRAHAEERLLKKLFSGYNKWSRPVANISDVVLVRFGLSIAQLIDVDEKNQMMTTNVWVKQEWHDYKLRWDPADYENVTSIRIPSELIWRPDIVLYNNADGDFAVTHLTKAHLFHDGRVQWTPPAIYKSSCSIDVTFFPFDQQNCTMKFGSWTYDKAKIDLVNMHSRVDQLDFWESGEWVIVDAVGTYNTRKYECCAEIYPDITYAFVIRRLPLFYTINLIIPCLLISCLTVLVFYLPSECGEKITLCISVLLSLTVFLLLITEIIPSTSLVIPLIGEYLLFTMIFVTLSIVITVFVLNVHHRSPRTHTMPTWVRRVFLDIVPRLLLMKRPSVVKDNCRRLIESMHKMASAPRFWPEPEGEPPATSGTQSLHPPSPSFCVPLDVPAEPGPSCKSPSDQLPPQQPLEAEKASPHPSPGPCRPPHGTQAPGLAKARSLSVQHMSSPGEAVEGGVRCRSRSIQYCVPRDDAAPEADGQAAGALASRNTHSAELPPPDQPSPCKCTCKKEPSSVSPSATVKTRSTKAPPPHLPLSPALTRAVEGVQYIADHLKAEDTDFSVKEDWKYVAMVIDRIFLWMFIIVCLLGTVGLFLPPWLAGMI

Consider `CC(=O)NCc1cn([C@@H]2C[C@H]3CC[C@@H](C2)[N+]3(C)C)nn1` [10q], for which the Ki (usually a measure of affinity in units of concentration, obtained from inhibition or displacement) in test [1] is greater than 30000 nM; in test [2], greater than 30000 nM; in test [3] it was 800 nM and > 5000 nM and 900 nM; in test [5] it was greater than 5000 nM. Also, a half-maximal effect in test [4] (EC50) was put at 5000 nM.
For the molecule `C[N+]1(C)[C@@H]2CC[C@H]1C[C@H](n1cc(CNS(=O)(=O)c3ccc([N+](=O)[O-])cc3)nn1)C2` [16q], the Ki was greater than 30000 nM in test [1]; greater than 30000 nM in test [2]; 620 nM and 800 nM and 600 nM in test [3]; greater than 5000 nM in test [5]. In addition, a half-maximal response in test [4] (EC50) required 1800 nM.
Regarding `C[N+]1(C)[C@@H]2CC[C@H]1C[C@H](n1cc(COc3ccccc3C3CCCC3)nn1)C2` [18q], the Ki in test [1] is 4000 nM; in test [2] it was greater than 30000 nM; in test [3], 260 nM and 270 nM and 440 nM; in test [5] it was 70 nM. For the same molecule, in test [4], the EC50 – broadly, the concentration needed to bring the measured effect to its halfway point – amounted to 400 nM.
Turning to `CCC[N+](C)(C)CCn1nncc1COc1cc(=O)n(C)c2ccccc12` [2'], the Ki in test [1] is greater than 30000 nM; in test [2], greater than 30000 nM; in test [3], 800 nM and 210 nM; in test [5] it was 40 nM. In test [4], the EC50 was 4200 nM.
With `Cc1cc([N+](=O)[O-])ccc1OCc1cn([C@@H]2C[C@H]3CC[C@@H](C2)[N+]3(C)C)nn1` [alpha7 agonists 9], the Ki in test [1] is 14000 nM; in test [2], greater than 30000 nM. Further, the EC50 in test [4] was determined as 1900 nM.
Turning to `CC(=O)c1c(OCc2cn([C@@H]3C[C@H]4CC[C@@H](C3)N4C)nn2)ccc2ccccc12` [22t], the Ki was 12000 nM in test [1]; 12000 nM in test [2]; 800 nM and 700 nM and > 5000 nM in test [3]; 141 nM in test [5]. For the same molecule, the EC50 in test [4] turned out to be 9000 nM.
Consider `O=c1cc(OCc2cnnn2CC[N+]23CCC(CC2)CC3)c2ccccc2[nH]1` [3'], for which the Ki is 30000 nM in test [1]; greater than 30000 nM in test [2]; 250 nM and 290 nM in test [3]; 24 nM in test [5]. The molecule also yielded an EC50 in test [4] of 2900 nM.
For `C[N+]1(C)[C@@H]2CC[C@H]1C[C@H](n1cc(CSc3nc4ccccc4s3)nn1)C2` [15q], the inhibitory constant (Ki) in test [1] was 3000 nM; in test [2] it was greater than 30000 nM; in test [3], 13 nM and 8 nM; in test [5] it was 4 nM. In test [4], this molecule came in with an EC50 of 200 nM.
In the case of `Cn1c(=O)cc(OCc2cn(CCC[N+]3(C)CCCC3)nn2)c2ccccc21` [alpha7 agonists 5], the Ki in test [1] is 18000 nM; in test [2], greater than 30000 nM. Also, a half-maximal effect in test [4] (EC50) was put at 800 nM.
As to `CN1[C@@H]2CC[C@H]1C[C@H](n1cc(C3(O)CCCCC3)nn1)C2` [11t], the Ki in test [1] was greater than 30000 nM; in test [2] it was greater than 30000 nM; in test [3] it was greater than 5000 nM; in test [5], greater than 5000 nM. In test [4], this molecule returned an EC50 greater than 30000 nM.
In the case of `C[N+]1(C)[C@@H]2CC[C@H]1C[C@H](n1cc(C(O)(c3ccccc3)C(F)(F)F)nn1)C2` (stereo partly specified) [19q], the figures for the Ki in test [1], in test [2] and in test [5] were 22000 nM, greater than 30000 nM and 120 nM, respectively. This molecule had an EC50 in test [4] of 2000 nM.
Turning to `CN1[C@@H]2CC[C@H]1C[C@H](n1cc(C3(O)c4ccccc4-c4ccccc43)nn1)C2` [20t], the Ki in test [1] was greater than 30000 nM; in test [2], greater than 30000 nM; in test [3], 2000 nM and 3100 nM and > 5000 nM; in test [5], 500 nM. Besides, it took 12000 nM to reach a half-maximal effect in test [4] (EC50).
On to `COc1ccc(C=O)c(OCc2cn([C@@H]3C[C@H]4CC[C@@H](C3)[N+]4(C)C)nn2)c1` [13q], for which the Ki in test [1] is 7000 nM; in test [2], greater than 30000 nM; in test [3], 110 nM and 120 nM and 80 nM; in test [5] it was 20 nM. In test [4], this molecule displayed an EC50 of 800 nM.
As to `CN1CC=C(OCc2cnnn2C2CC3CCC(C2)[N+]3(C)C)c2ccccc21` (stereo unspecified) [4'], the Ki in test [1] was 23000 nM; in test [2] it was 900 nM; in test [3], 300 nM and 100 nM; in test [5], 2 nM. In addition, the response in test [4] was half-maximal at 600 nM (EC50).
With `Cn1c(=O)cc(OCc2cn(CC[N+]34CCC(CC3)CC4)nn2)c2ccccc21` [alpha7 agonists 3], the values for the Ki in test [1] and in test [2] were 8000 nM and greater than 30000 nM, respectively. Moreover, the EC50 in test [4] worked out at 1800 nM.
Regarding `CC(=O)c1c(OCc2cn([C@@H]3C[C@H]4CC[C@@H](C3)[N+]4(C)C)nn2)ccc2ccccc12` [22q], the Ki in test [1] is greater than 30000 nM; in test [2], greater than 30000 nM; in test [3] it was 200 nM and 300 nM and 900 nM; in test [5] it was 160 nM. Further, in test [4], the midpoint of the response, the EC50, lay at 400 nM.
For the molecule `COc1ccc(C=O)c(OCc2cn([C@@H]3C[C@H]4CC[C@@H](C3)N4C)nn2)c1` [13t], the results for the Ki in test [1], in test [2] and in test [5] were 5000 nM, 5000 nM and 26 nM, respectively. For the same molecule, the EC50 in test [4] is greater than 30000 nM.
Consider `CN1[C@@H]2CC[C@H]1C[C@H](n1cc(COc3ccccc3-c3ccno3)nn1)C2` [14t], for which the Ki was greater than 30000 nM in test [1], greater than 30000 nM in test [2] and 25 nM in test [5]. This molecule displayed an EC50 in test [4] greater than 30000 nM.
Regarding `Cn1c(=O)cc(OCc2cn(CC[N+]3(C)CCCCC3)nn2)c2ccccc21` [alpha7 agonists 2], the Ki in test [1] is 12000 nM; in test [2], greater than 30000 nM. The same molecule registered an EC50 in test [4] of 1200 nM.
Turning to `CC(=O)NCc1cn([C@@H]2C[C@H]3CC[C@@H](C2)N3C)nn1` [10t], the Ki is 18000 nM in test [1], greater than 30000 nM in test [2], greater than 5000 nM in test [3] and 900 nM in test [5]. This molecule also gave an EC50 in test [4] greater than 30000 nM.
`C[N+]1(C)[C@@H]2CC[C@H]1C[C@H](n1cc(CNC(=O)c3ccco3)nn1)C2` [12q]: the Ki in test [1] is greater than 30000 nM; in test [2], greater than 30000 nM; in test [3], 600 nM and 1000 nM and 700 nM; in test [5], 400 nM. In test [4], this molecule yielded an EC50 of 3000 nM.
In the case of `CN1[C@@H]2CC[C@H]1C[C@H](n1cc(CNS(=O)(=O)c3ccc([N+](=O)[O-])cc3)nn1)C2` [16t], the Ki in test [1] was greater than 30000 nM; in test [2] it was greater than 30000 nM; in test [3] it was greater than 5000 nM; in test [5], greater than 5000 nM. In addition, in test [4], the EC50 amounted to 5000 nM.
For `Cn1c(=O)cc(OCc2cn([C@@H]3C[C@H]4CC[C@@H](C3)[N+]4(C)C)nn2)c2ccccc21` [alpha7 agonists 4], the inhibitory constant (Ki) in test [1] stood at 4000 nM; in test [2], 34000 nM. This molecule had an EC50 in test [4] of 300 nM.
Regarding `CN1[C@@H]2CC[C@H]1C[C@H](n1cc(COc3cc(=O)n(C)c4ccccc34)nn1)C2` [alpha7 agonists 4t], the Ki is 14000 nM in test [1], 15000 nM in test [2] and 1.3 nM in test [5]. The molecule further gave an EC50 in test [4] of 11000 nM.
Turning to `COc1cc(C=O)ccc1OCc1cn([C@@H]2C[C@H]3CC[C@@H](C2)[N+]3(C)C)nn1` [alpha7 agonists 8], the Ki in test [1] was 6000 nM; in test [2], greater than 30000 nM. The molecule also came in with an EC50 in test [4] of 1000 nM.
For `Cc1cc(C)nc(SCCCc2cn([C@@H]3C[C@H]4CC[C@@H](C3)[N+]4(C)C)nn2)n1` [21q], the Ki was 27100 nM in test [1], greater than 30000 nM in test [2] and 40 nM in test [5]. Besides, the EC50 in test [4] turned out to be 3000 nM.
For `C[N+]1(C)[C@@H]2CC[C@H]1C[C@H](n1cc(C3(O)CCCCC3)nn1)C2` [11q] the same measures were greater than 30000 nM, greater than 30000 nM, greater than 5000 nM and 9000 nM.
For `Cc1cc(C)nc(SCCCc2cn([C@@H]3C[C@H]4CC[C@@H](C3)N4C)nn2)n1` [21t] the same measures were greater than 30000 nM, greater than 30000 nM, 300 nM and greater than 30000 nM.
With `C[N+](C)(C)CCn1cc(COc2cc([O])nc3ccccc23)nn1` [alpha7 agonists 6], the Ki in test [1] was 14000 nM; in test [2], greater than 30000 nM. Further, the EC50 in test [4] was 1700 nM.
Taken in the same sequence, the figures for `C[N+]1(C)[C@@H]2CC[C@H]1C[C@H](n1cc(COc3cccc(C#N)c3)nn1)C2` [alpha7 agonists 7] were greater than 30000 nM, greater than 30000 nM and 900 nM.
In the case of `CN1[C@@H]2CC[C@H]1C[C@H](n1cc(COc3ccccc3C3CCCC3)nn1)C2` [18t], the Ki in test [1] is 12000 nM; in test [2] it was 12000 nM; in test [5], 30 nM. For the same molecule, in test [4], the EC50 is greater than 30000 nM.
